Assay [1] deals with Mycobacterium tuberculosis. In words: microbe, parasite or virus in culture. The following applies: 120 h.
For assay [2], the system named is Mycobacterium tuberculosis. The class given is functional. The note with it: H37Rv, 120 h.

Converted amounts (≈) assume the structure as drawn.

Turning to `CC1COC2(CCN(c3nc(=O)c4cc(C(F)(F)F)cc([N+](=O)[O-])c4s3)CC2)O1` (centres undefined), the MIC in assay [1] was found to be 0.01 µM (≈ 0.00431 µg/mL).
Turning to `Cc1cc(-n2cccn2)ccc1S(=O)(=O)NC1CCN(Cc2ccncc2)CC1`, the MIC in assay [2] was 0.8 µM (≈ 0.329 µg/mL).
Same read-out and setting: with `Cc1cccc2c(CN3CCC(NS(C)(=O)=O)C3)c(-c3ccccc3)[nH]c12` (racemic) the figure was 1.6 µM (≈ 0.614 µg/mL).
For `O=S(=O)(NC1CCN(Cc2ccncc2)CC1)c1ccc(-n2cccn2)cc1`, the values for the MIC in assay [2] and in assay [1] were 3.3 µM (≈ 1.31 µg/mL) and 1.6 µM (≈ 0.636 µg/mL), respectively.
In assay [1], `NNC(=O)c1ccncc1` [ISONIAZID] showed an MIC of 0.5 µM (≈ 0.0686 µg/mL).
For `COCCN(C1CCN(Cc2c(-c3ccccc3)[nH]c3c(C)cccc23)C1)S(C)(=O)=O` (centres undefined), the figures for the MIC in assay [2] and in assay [1] were 0.8 µM (≈ 0.353 µg/mL) and 1.6 µM (≈ 0.707 µg/mL), respectively.
For `CO[C@H]1/C=C/O[C@@]2(C)Oc3c(C)c(O)c4c(O)c(c(/C=N/N5CCN(C)CC5)c(O)c4c3C2=O)NC(=O)/C(C)=C\C=C\[C@H](C)[C@H](O)[C@@H](C)[C@@H](O)[C@@H](C)[C@H](OC(C)=O)[C@@H]1C` [RIFAMPIN], in assay [1], the MIC worked out at 12.5 µM (≈ 10.3 µg/mL).

The record behind these values is ChEMBL document CHEMBL3351608, “2-Phenylindole and Arylsulphonamide: Novel Scaffolds Bactericidal against Mycobacterium tuberculosis” (ACS Med Chem Lett, 2014).
